Calls of active or inactive are those of the source.
Legend:
Vero [1] = test: cells; format: functional, Chlorocebus sabaeus
Vero [2] = test: cells; format: functional, cell-based, Chlorocebus sabaeus
[3] = biological target: T1, Short transient receptor potential channel 4 (Mus musculus, UniProt Q9QUQ5); test: mouse TRPC4 channel inhibitors, dose response, cell-based, HEK293 TRPC4/mu-opioid, Fluo-4 calcium (AID 434942); format: functional;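 further: potency of inhibitors blocking the TRPC4 calcium response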
T1 sequence (Q9QUQ5 whole entry): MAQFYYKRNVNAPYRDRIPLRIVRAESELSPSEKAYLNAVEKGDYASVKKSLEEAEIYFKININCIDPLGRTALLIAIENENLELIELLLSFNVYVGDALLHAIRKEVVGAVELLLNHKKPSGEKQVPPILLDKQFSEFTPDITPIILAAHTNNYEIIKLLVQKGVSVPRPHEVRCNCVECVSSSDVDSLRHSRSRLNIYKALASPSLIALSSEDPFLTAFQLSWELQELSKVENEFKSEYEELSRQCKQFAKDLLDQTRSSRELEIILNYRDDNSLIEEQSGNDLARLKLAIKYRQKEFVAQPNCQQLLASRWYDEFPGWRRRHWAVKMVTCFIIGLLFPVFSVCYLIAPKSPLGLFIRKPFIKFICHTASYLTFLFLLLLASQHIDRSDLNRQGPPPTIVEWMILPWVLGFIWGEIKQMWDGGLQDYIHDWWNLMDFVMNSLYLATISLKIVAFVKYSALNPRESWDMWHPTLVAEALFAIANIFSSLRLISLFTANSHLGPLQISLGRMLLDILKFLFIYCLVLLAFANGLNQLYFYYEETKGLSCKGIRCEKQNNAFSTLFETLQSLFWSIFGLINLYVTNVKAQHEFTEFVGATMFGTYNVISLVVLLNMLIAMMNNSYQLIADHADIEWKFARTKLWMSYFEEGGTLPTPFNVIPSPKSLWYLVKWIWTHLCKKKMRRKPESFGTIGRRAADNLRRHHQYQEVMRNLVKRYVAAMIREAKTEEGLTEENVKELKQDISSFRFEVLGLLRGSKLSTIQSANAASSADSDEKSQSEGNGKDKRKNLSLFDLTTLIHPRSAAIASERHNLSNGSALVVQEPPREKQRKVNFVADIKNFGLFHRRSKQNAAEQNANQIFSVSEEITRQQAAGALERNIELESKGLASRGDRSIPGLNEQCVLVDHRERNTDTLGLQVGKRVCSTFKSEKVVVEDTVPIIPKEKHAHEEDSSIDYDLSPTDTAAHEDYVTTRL

cells [4] = test: cells
[5] = cytotoxicity toward NIH3T3 fibroblasts, dose response, counter-screen, cell-based, ATP luminescence, mouse fibroblasts (AID 2010); format: functional;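 further: cells exposed to compound for about 90 hours before reading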
[6] = inhibitors of intracellular T. cruzi replication, confirmation, NIH3T3 host cells, beta-gal luminescence (AID 2044); format: functional, cell-based;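 further: intracellular parasites grown in NIH/3T3 mouse fibroblasts as host cells; luminescent beta-galactosidase reporter signal from transgenic T. cruzi replicating inside host cells; inhibitors lower the luminescence signal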
[7] = biological target: T2, Ubiquitin-conjugating enzyme E2 N (Homo sapiens, UniProt P61088); format: functional;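 further: Dose-response confirmation in a TR-FRET assay detecting UBC13-driven polyubiquitin chain formation, inhibition measured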
T2 sequence (P61088 whole entry): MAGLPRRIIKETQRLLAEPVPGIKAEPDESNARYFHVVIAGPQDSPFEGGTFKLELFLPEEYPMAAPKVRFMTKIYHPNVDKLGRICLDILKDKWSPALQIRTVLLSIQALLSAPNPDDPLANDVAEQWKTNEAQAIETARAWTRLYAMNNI

INS1 = test: beta cell apoptosis inhibitors, cytokine rescue, dose response, luminescence, retest (AID 449756); format: functional, cell-based; details: Rattus norvegicus;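 further: cell death triggered by IL-1 beta plus TNF-alpha plus IFN-gamma mixture; protective hits raise ATP signal compared with cytokine alone wells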
[8] = Luminescence Cell-Based Dose Confirmation HTS to Identify Activators of 5'UTR Stem-Loop Driven Alpha-Synuclein mRNA Translation in H4 Neuroglioblastoma Cells. [Related pubchem assays: 1829 (Project Summary), 1814 (Primary HTS)]; format: functional
cells [9] = format: functional
[10] = Luminescence Cell-Based Dose Response HTS to Identify Activators of Luciferase Translation or Activity in H4 […] Cells. [Related pubchem assays: 1829 (Project Summary), 1814 (Primary HTS)]; format: functional
H4 = test: Luminescence Cell-Based Dose Response HTS to Identify Activators of 5'UTR Stem-Loop Driven Prion Protein mRNA Translation in H4 Neuroglioblastoma Cells. [Related pubchem assays: 1829 (Project Summary), 1814 (Primary HTS)]; format: functional; details: Homo sapiens
[11] = THP-1 cell cytotoxicity, dose response, cytotoxicity control for non-replicating M. tuberculosis project (AID 489025); format: functional
[12] = growth suppression of beta-catenin-knockout colon cells, dose response, cell-based, HCT116, human colon tumor (AID 1045); format: functional;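 further: HCT116 colon tumor cells with beta catenin knocked out; cells exposed to compound for 60 hours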
[13] = growth suppression of PTEN-null colon cells, dose response, cell-based, HCT116 PTEN knockout (AID 1047); format: functional;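 further: HCT116 colon tumor cells with PTEN knocked out; cells exposed to compound for 60 hours before readout; potency for loss of cell viability measured by luminescence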
[14] = microbe, parasite or virus in culture; format: functional; details: Mycobacterium tuberculosis
Large T antigen = Large T antigen (Simian virus 40, UniProt P03070); format: functional, Betapolyomavirus macacae;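 further: Confirmatory-stage PubChem screen for compounds that inhibit SV40 T antigen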
Protein RecA = biological target: T3, Protein RecA (Mycobacterium tuberculosis, UniProt P9WHJ3); test: Fluorescence Cell-Free Homogeneous Dose Retest to Identify Inhibitors of RecA-Intein Splicing Activity. [Related pubchem assays (depositor defined):AID2097, AID2223, AID489010, AID492950]; format: functional
T3 sequence (P9WHJ3 whole entry): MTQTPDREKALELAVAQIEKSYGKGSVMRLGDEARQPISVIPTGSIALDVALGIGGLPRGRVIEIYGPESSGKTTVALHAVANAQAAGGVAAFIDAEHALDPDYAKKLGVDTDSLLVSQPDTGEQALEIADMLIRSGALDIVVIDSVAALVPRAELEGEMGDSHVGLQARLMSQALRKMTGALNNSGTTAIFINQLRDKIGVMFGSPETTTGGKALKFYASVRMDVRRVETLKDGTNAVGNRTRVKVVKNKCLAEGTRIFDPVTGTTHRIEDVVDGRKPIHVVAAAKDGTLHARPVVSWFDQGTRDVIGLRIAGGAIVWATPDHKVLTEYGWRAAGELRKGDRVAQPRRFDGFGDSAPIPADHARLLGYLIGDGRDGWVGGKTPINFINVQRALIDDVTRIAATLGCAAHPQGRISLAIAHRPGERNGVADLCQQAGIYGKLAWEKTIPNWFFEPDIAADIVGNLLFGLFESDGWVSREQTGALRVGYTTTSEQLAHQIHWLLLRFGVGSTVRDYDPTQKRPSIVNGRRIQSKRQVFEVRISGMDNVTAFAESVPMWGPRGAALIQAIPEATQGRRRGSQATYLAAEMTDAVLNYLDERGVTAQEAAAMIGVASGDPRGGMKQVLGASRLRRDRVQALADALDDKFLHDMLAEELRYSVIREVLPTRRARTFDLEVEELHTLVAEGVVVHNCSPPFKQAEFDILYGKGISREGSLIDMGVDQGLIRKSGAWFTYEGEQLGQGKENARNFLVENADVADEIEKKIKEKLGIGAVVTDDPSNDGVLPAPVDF

[15] = biological target: T4, Replicative DNA helicase DnaB (Mycobacterium tuberculosis, UniProt P9WMR3); test: DnaB intein splicing inhibitors, dose response, biochemical, cell-free fluorescence (AID 449749); format: functional
T4 sequence (P9WMR3 whole entry): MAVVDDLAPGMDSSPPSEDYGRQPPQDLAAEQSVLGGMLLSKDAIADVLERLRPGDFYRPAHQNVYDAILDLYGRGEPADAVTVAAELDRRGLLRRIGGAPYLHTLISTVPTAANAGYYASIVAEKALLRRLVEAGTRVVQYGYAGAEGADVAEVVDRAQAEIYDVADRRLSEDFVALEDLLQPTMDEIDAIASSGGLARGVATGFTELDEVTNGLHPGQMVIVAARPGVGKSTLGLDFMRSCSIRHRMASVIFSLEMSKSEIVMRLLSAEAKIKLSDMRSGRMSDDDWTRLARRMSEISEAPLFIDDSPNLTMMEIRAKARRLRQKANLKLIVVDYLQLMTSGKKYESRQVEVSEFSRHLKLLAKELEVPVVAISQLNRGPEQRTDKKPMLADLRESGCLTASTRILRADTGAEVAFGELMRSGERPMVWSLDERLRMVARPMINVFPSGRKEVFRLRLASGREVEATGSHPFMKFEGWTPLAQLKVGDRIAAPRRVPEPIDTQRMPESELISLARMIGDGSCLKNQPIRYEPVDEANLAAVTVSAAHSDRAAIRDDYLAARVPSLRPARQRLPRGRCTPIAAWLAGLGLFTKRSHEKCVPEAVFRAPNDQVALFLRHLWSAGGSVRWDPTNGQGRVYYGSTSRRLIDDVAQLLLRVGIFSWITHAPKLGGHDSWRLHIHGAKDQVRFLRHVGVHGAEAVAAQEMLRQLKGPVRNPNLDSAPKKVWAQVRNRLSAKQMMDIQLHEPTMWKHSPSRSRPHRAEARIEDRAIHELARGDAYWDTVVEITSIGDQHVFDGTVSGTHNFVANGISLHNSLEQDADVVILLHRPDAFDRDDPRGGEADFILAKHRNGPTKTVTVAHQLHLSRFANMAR

[16] = inhibitors of firefly luciferase expression or activity, dose response, H4 neuroglioma cells, luminescence (AID 1990); format: functional, cell-based
[17] = inhibitors of SNCA 5'UTR-driven reporter translation, confirmation, H4 neuroglioma cells, luminescence (AID 1988); format: functional, cell-based
[18] = Luminescence Cell-Based Dose Response HTS to Identify Inhibitors of 5'UTR Stem-Loop Driven Prion Protein mRNA Translation in H4 Neuroglioblastoma Cells. [Related pubchem assays: 1827 (Project Summary), 1813 (Primary HTS)]; format: functional

Chain of Large T antigen (P03070 whole entry): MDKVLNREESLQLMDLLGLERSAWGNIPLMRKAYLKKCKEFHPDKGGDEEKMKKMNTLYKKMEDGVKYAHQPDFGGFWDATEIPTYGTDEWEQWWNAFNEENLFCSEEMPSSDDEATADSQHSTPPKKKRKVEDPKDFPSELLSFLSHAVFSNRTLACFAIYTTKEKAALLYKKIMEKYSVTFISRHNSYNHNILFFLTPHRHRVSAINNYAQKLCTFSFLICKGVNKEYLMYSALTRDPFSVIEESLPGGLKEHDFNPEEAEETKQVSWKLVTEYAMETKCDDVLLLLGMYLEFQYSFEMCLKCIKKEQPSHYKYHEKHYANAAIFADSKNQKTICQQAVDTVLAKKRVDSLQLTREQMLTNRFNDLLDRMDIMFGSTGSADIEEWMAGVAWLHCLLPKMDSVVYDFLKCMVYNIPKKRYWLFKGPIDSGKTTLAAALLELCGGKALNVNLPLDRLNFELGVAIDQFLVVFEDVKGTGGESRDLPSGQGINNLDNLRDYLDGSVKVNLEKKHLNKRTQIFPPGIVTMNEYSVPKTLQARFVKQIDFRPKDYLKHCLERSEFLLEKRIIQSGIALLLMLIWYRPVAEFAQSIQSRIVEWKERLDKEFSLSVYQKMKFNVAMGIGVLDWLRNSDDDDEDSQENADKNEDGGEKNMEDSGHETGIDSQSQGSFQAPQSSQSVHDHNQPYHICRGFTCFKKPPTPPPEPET

## O=C(CSc1nc2ccccc2n1-c1ccccc1)Nc1ncc(Cl)cc1Cl
Vero [1]; Chlorocebus sabaeus, Vero
  CC50: 22.1 µM (active)
Vero [2]; Chlorocebus sabaeus, Vero
  IC50: 4.63 µM (active)

## N=c1c2c(n(Cc3ccccc3)c3c1CCC3)CCC2
[3]
  EC50: 3.35 µM (active)

## CCN(CC)CCN(C(=O)C1CCCCC1)c1nc2cc3c(cc2s1)OCO3
Cells [4]
  EC50: 0.514 µM (active)
[5]
  EC50: > 60 µM (not active)
[6]
  EC50: < 0.1 µM (active)

## COc1cccc(NC(=O)CSc2nc3ccccc3c(=O)n2CCCC(=O)NCCCN2CCOCC2)c1
[7]
  IC50: > 20 µM (inactive)

## CNCCNC[C@H](Cc1cccc2ccccc12)NCCc1ccccc1
Vero [2]; Chlorocebus sabaeus, Vero
  IC50: 20.4 µM (active)

## CCCCCc1cc(=O)oc2c(C(CCN(CC)CC)c3ccc(OC)cc3)c(OC)cc(OC)c12 (centres undefined)
INS1
  AC50: 10.8 µM (active)
[7]
  IC50: > 20 µM (inactive)

## Cc1ccc(O)c(C(=O)CC(=O)c2cccc(F)c2)c1
Vero [1]; Chlorocebus sabaeus, Vero
  CC50: > 25 µM (active)
Vero [2]; Chlorocebus sabaeus, Vero
  IC50: 21.1 µM (active)

## C=CCNc1nnc(Sc2ncccc2[N+](=O)[O-])s1
[8]
  EC50: > 120 µM (not active)
Cells [9]
  IC50: 3.81 µM (active)
[10]
  EC50: 10.3 µM (inconclusive)
H4
  EC50: 17.8 µM (active)
[11]
  CC50: 33.4 µM (active)

## CCc1ccc(C2=NN(c3ccc(S(N)(=O)=O)cc3)C(c3ccc(F)cc3)C2)cc1 (centres undefined)
[12]
  EC50: 17.9 µM (active)
[13]
  EC50: 16.6 µM (active)
[14]
  CC50: 27.6 µM (active)

## COc1cc(/C=N/N(C)C)cc(Br)c1O
Large T antigen
  IC50: 5.17 µM (active)

## C[C@]12CCCC[C@@H]1CC[C@@H]1[C@@H]2CC[C@@]2(C)[C@H]1CC[C@@]2(O)CNCCO
Vero [1]
  CC50: 19.4 µM (active)
Vero [1]; Chlorocebus sabaeus, Vero
  CC50: 18.4 µM (active)
[7]
  IC50: > 20 µM (inactive)
Vero [2]; Chlorocebus sabaeus, Vero
  IC50: > 12.5 µM (active)
Vero [2]; vero
  IC50: 9.19 µM (active)

## O=C(CCl)Nc1sccc1C(=O)c1ccccc1
Protein RecA
  EC50: 4.78 µM (active)
[15]
  AC50: 4.8 µM (active)
[14]
  CC50: 18.1 µM (active)

## CCOC(=O)C1(CCOc2ccccc2)CCN(Cc2cccs2)CC1
[3]
  EC50: 4.22 µM (active)

## Cc1ccc(C(=O)c2c(NC(=O)c3ccncc3)sc3c2CCCC3)cc1
Cells [4]
  EC50: 0.266 µM (active)
[5]
  EC50: > 60 µM (not active)
[6]
  EC50: < 0.1 µM (active)

## COC(=O)c1c(NC(=O)c2ccc(OC(C)C)cc2)sc2c1CC(C)(C)NC2(C)C
[16]
  EC50: 8.35 µM (active)
Vero [1]; Chlorocebus sabaeus, Vero
  CC50: > 25 µM (active)
[17]
  EC50: 8.31 µM (active)
[18]
  EC50: 8.41 µM (active)
[7]
  IC50: > 20 µM (inactive)
Vero [2]; Chlorocebus sabaeus, Vero
  IC50: 23.3 µM (active)

## CCc1ccc2oc(=O)cc(CN3CCN(Cc4ccccc4)CC3)c2c1
Cells [4]
  EC50: 0.127 µM (active)
[5]
  EC50: > 60 µM (not active)
[6]
  EC50: < 0.1 µM (active)

## COc1ccc(Cn2nnnc2C(c2cc3cc(C)ccc3nc2O)N2CCN(C)CC2)cc1 (centres undefined)
[3]
  EC50: 1.88 µM (active)

## Cc1ccc2c(CN3CCN(Cc4ccccc4)CC3)cc(=O)oc2c1C
Cells [4]
  EC50: 0.065 µM (active)
[5]
  EC50: > 60 µM (not active)
[6]
  EC50: < 0.1 µM (active)

## COc1ccc(Br)cc1CN1CCN(C(=O)Cc2ccccc2)CC1
[3]
  EC50: 6.68 µM (active)

## CCOC(=O)Cc1cc(=O)n(-c2nc3ccccc3s2)[nH]1
Large T antigen
  IC50: > 100 µM (active)

## N#Cc1ccsc1NC(=O)C1CCN(C(=O)c2ccc(Cl)cc2)CC1
[7]
  IC50: > 20 µM (inactive)

From ChEMBL document CHEMBL1201862, “PubChem BioAssay data set” (2004)
